Molecules are shown by their SMILES.

The assay has as its target T1, Dihydrofolate reductase (Escherichia coli (strain K12), UniProt O30463+P0ABQ4).
T1 sequence (P0ABQ4 whole entry): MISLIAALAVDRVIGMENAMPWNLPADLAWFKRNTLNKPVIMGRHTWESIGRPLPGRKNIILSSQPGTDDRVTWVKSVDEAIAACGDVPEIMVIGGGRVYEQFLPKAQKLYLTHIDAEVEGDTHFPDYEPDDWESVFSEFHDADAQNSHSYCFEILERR
T1 sequence (O30463 whole entry): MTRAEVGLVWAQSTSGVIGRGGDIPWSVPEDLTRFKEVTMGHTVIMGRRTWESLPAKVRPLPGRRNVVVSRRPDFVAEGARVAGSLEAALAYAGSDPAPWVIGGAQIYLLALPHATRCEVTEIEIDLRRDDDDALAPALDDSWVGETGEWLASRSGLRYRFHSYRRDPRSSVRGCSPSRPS
Put plainly: Inhibitory concentration against Escherichia coli dihydrofolate reductase.

Broadly, the IC50 is the midpoint of a concentration-inhibition curve. A low value points to inhibition by little substance. `CN(Cc1ccc2c(n1)C(N)N=C(N)N2)c1ccc(C(=O)NC(CCC(=O)O)C(=O)O)cc1` (stereo unspecified) [2-{4-[(2,4-Diamino-4,4a-dihydro-pyrido[3,2-d]pyrimidin-6-ylmethyl)-methyl-amino]-benzoylamino}-pentanedioic acid] had an IC50 of 660 µM.
